Among the data in the METLIN SMRT retention time set (Domingo-Almenara et al. 2019) are RP-LC retention time values, retold here.

A short description of this data set: gradient 5% acetonitrile 3 min, to 50% in 2 min, to 85% in 15 min, held 3 min, 100 µL/min. The conditions noted are these: column: Zorbax Extend-C18 2.1 x 50 mm; eluents: water / acetonitrile, 0.1% formic acid. An outline of the steps:
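Retention times come from adduct peaks that were picked computationally and then checked by hand. The standards, pure and pooled in mixtures of ~100 molecules, were run on a Zorbax Extend-C18 column (2.1 × 50 mm, 1.8 μm) at 100 μL/min with water and acetonitrile, each with 0.1% formic acid. Detection was by quadrupole time-of-flight mass spectrometry in positive and negative ionization mode, with a dead volume of 40 μL and a dwell volume of 900 μL.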
As for `O=C1NCCCn2cc(S(=O)(=O)Nc3ccc4c(c3)OCCO4)cc21`, the RP-LC retention time was 622 s.
The compound `CCn1c(=O)c2c(cc(C)n2C)n(CC(=O)Nc2cc(OC)cc(OC)c2)c1=O` registered an RP-LC retention time of 779 s.
The compound `O=C1[C@H]2CN(Cc3cc(F)c(F)c(F)c3)C[C@H]2C(=O)N1CCc1ccccc1` had an RP-LC retention time of 982 s.
For `CCS(=O)(=O)N1CCCc2cc(C(=O)NC(C)c3ccccc3)ccc21` (stereo not given) the value was 870 s; for `O=C(c1cccc(Cl)c1)N(CCS(=O)(=O)N1CCNCC1)CC1CCCO1` (stereo not given), 618 s; for `COC(=O)C1=CN(c2ccc(OC)cc2)c2ccccc2S1(=O)=O`, 819 s.
Consider `Cc1ccc(C)c(C(=O)Nc2cccn3cnnc23)c1`, for which the RP-LC retention time worked out at 734 s.
The compound `COC(=O)c1ccc2c(=O)n(Cc3ccc(F)cc3)c(N3CCC(C(N)=O)CC3)nc2c1` registered an RP-LC retention time of 777 s.
For `Cc1ccc(Cn2nc3ccc(S(=O)(=O)N4CCCCCC4)cn3c2=O)cc1` the value was 1010 s.
As to `CCNc1cc(N2CCC(CCC(=O)N3CCC(COC)CC3)CC2)ncn1`, the RP-LC retention time is 631 s.
Next, `Cc1c(C2CCN(C(=O)Cc3ccc(F)cc3)CC2)noc1N`: 698 s; `O=C(c1cccc2[nH]ccc12)N1CC(Oc2ccc(-c3nc(-c4ccccc4)no3)cc2)C1`: 1100 s.
For the compound `Cc1cccn2cc(C(=O)NCc3cc(F)ccc3F)nc12`, the RP-LC retention time is 655 s.
In turn, `Cc1[nH]c(C(=O)N2CCC(CC(=O)NC(C)C)CC2)c(C)c1C(=O)OC(C)C` came in with an RP-LC retention time of 713 s.
As for `CCCn1nccc1-c1csc(S(=O)(=O)N2CCC3(CC2)OCCO3)c1`, the RP-LC retention time turned out to be 906 s.
In the case of `O=C([C@@H]1C[C@H](F)CN1C(=O)c1cccs1)N1CCCCC1`, the RP-LC retention time was found to be 662 s.
The compound `CN1C(=O)C2CCCCN2c2ccc(C(=O)NCCN3CCCC3)cc21` (stereo not given) gave an RP-LC retention time of 981 s.
As for `CCc1ccc(-n2ncc3c(=O)n(Cc4nc(-c5ccccc5)no4)cnc32)cc1`, the RP-LC retention time came out at 1160 s.
Next, `Cc1ccc(NC(=O)Cn2c(C)nc3c(sc4nc(-c5ccccc5)ccc43)c2=O)cc1`: 1060 s; `Cn1c(N)c(C(=O)c2ccco2)c(=O)n(C)c1=O`: 560 s; `Cc1cccc(CNC(=O)c2cc(C(C)(C)C)n3nccc3n2)c1`: 1230 s.
For `Cc1nn(CCC(=O)NCCC2=CCCCC2)c(=O)c2nn(-c3ccccc3)c(C)c12` the value was 867 s; for `Cc1ccc(Cl)cc1NC(=O)C1CCN(S(=O)(=O)c2cc3c(cc2C)NC(=O)CO3)CC1`, 863 s.
With `COc1ccccc1C(CNC(=O)c1cc(=O)c2cc(C)cc(C)c2o1)N(C)C` (stereo not given), the RP-LC retention time is 659 s.
As for `COCCC(=O)N1CCC2(CCC2OC)CC1` (stereo not given), the RP-LC retention time is 664 s.
As for `CCc1ccc2oc(=O)cc(CN3CCN(c4ccccn4)CC3)c2c1`, the RP-LC retention time worked out at 669 s.
Next, `CC1(C(=O)NCc2cccc(Cl)c2)Oc2cccnc2NC1=O` (stereo not given): 723 s; `COc1ccc2nc(C)cc(NCCCCCCCCCNc3cc(C)nc4ccc(OC)cc34)c2c1`: 670 s.
Turning to `Cc1ccc(CN2CCN(C3CCN(C(=O)Nc4ccccc4)CC3)C2=O)cc1`, the RP-LC retention time was found to be 844 s.
For `O=C(NCC1CCCO1)C(=O)NCC(c1ccc2c(c1)OCO2)N1CCOCC1` (stereo not given) the value was 583 s; for `CCc1nc(-c2csc(S(=O)(=O)N3CCC(C(=O)Nc4ccc(C(C)C)cc4)CC3)c2)no1`, 1140 s.
Consider `Cc1cc(OCC(O)CNCc2ccco2)ccc1Cl` (stereo not given), for which the RP-LC retention time amounted to 588 s.
In turn, `CNC(=O)[C@@H]1CN(C(=O)c2cncc(Br)c2)C[C@H]1COC` yielded an RP-LC retention time of 576 s.
In the case of `O=C(Nc1ccc2c(c1)OCCO2)C1CCN(C(=O)c2ccccc2F)CC1`, the RP-LC retention time was found to be 734 s.
For `COc1ccc(CNC(=O)c2c(O)c3cccnc3[nH]c2=O)cc1`, the RP-LC retention time worked out at 892 s.
On to `CCNc1nc(C)cc(N2CCN(S(=O)(=O)c3ccc(-c4csc(C)n4)s3)CC2)n1`, for which the RP-LC retention time was found to be 733 s.
Next, `CCCNC(=O)C1CCN(c2ccc(SCC(=O)Nc3ccccc3OC)nn2)CC1`: 611 s.
For `CCC1CCCCN1CCCNC(=O)c1sc2nc3n(c(=O)c2c1C)CCC3` (stereo not given), the RP-LC retention time turned out to be 598 s.
For the compound `COC(=O)c1cc2c(=O)n(-c3cccc(Cl)c3Cl)ccc2nc1C`, the RP-LC retention time came to 915 s.
Turning to `COc1ccc(-c2nc(CNC(=O)c3ccc(-c4noc(C(C)C)n4)cc3)no2)cc1`, the RP-LC retention time stood at 1000 s.
The compound `COc1ccc(CC(=O)NCc2c(C)nc3sc(C)nn23)cc1Cl` returned an RP-LC retention time of 629 s.
`O=C(NCCc1cccs1)C1CCCN(c2nccn3nc(-c4ccccc4Cl)cc23)C1` (stereo not given): the RP-LC retention time turned out to be 947 s.
Next, `COc1ccc(N2CCN(C(=O)c3[nH]c(C)c(S(=O)(=O)N4CCOCC4)c3C)CC2)cc1`: 703 s; `COc1ccc(Br)cc1CNC(=O)Cn1cc(-c2nnco2)c2ccccc21`: 855 s; `Cc1nn(C(=O)C(C)(C)C)c(C)c1S(=O)(=O)N1CCOCC1`: 1090 s.
In turn, `CCCNC(=O)N1CC(Oc2cccc(-c3nc(-c4ccccc4)no3)c2)C1` gave an RP-LC retention time of 1040 s.
For `NCCC1CCN(C(=O)Nc2cc(F)ccc2F)CC1` the value was 588 s; for `O=S1(=O)C[C@H](N2CCN(c3ccccc3F)CC2)[C@@H](S(=O)(=O)c2ccc(Cl)cc2)C1`, 986 s.
`CCOCCCNC(=O)C1(C)Cn2c(ccc2-c2ccco2)C(=O)N1c1ccc(OC)c(OC)c1` (stereo not given) yielded an RP-LC retention time of 752 s.
In the case of `COc1cc(OC)cc(-c2nc(C3CC(=O)N(c4ccc(F)c(Cl)c4)C3)no2)c1` (stereo not given), the RP-LC retention time was 1110 s.
For `Cn1cc(-c2ccncc2)cc1C(=O)N1CCN(c2cccc(Cl)c2)CC1` the value was 679 s; for `CN1c2ccc(F)cc2C(=O)NC12CCN(C(=O)c1ccccc1F)CC2`, 745 s; for `COC(=O)Cn1c(C2CC(=O)N(c3ccccc3C)C2)nc2ccccc21` (stereo not given), 704 s.
In turn, `Cc1cnc(C2CCC2)n1CCNC(=O)c1cc(C2CC2)[nH]n1` displayed an RP-LC retention time of 586 s.
For `O=C(CCc1cccc2[nH]ccc12)N1CCN(c2cccc(Cl)c2)CC1`, the RP-LC retention time is 980 s.
`CC(=O)c1ccc(NC(=O)C(C)Oc2ccc(=O)n(-c3ccc(F)cc3)n2)cc1` (stereo not given) showed an RP-LC retention time of 727 s.
In turn, `Cc1nn(C(C)C(=O)NCCCN2CCN(C)CC2)c(=O)c2c1sc1ccccc12` (stereo not given) gave an RP-LC retention time of 592 s.
Regarding `Cc1noc(-c2cccc(OC3CN(C(=O)Nc4ccccc4)C3)c2)n1`, the RP-LC retention time came out at 844 s.
The compound `Cc1noc(C)c1Cc1ccc(C(=O)NCC2Cn3cccc3C(=O)N2C)o1` (stereo not given) displayed an RP-LC retention time of 669 s.
In the case of `Cc1ccc(-c2coc(-c3ccc(NC(=O)NCc4ccc(F)cc4)cc3)n2)c(C)c1`, the RP-LC retention time worked out at 1180 s.
For `Cc1ccc(NC(=O)N(C)CCc2noc(COc3ccc(F)cc3)n2)cc1` the value was 926 s; for `COc1ccc(OC)c(NC(=O)C2Cn3cccc3C(=O)N2C)c1` (stereo not given), 699 s; for `CC(C)Oc1ccc(CNC(=O)C2=Cc3ccccc3OC2)cc1`, 1040 s.
For `CS(=O)(=O)N1CCC(C(=O)Nc2ccc(F)cc2)Oc2ccccc21` (stereo not given) the value was 817 s.
As for `CCc1nc(-c2csc(S(=O)(=O)N3CCC(C(=O)NCc4ccccn4)CC3)c2)no1`, the RP-LC retention time came out at 654 s.
The compound `COc1cc(OC)cc(-c2noc(Cn3c(=O)n(CC(C)C)c(=O)c4ccccc43)n2)c1` displayed an RP-LC retention time of 1160 s.
With `O=C(NCc1ccc(F)cc1Cl)C1CCCN(c2cnc3nccnc3c2)C1` (stereo not given), the RP-LC retention time is 748 s.
As for `Cc1cc2c(cc1S(=O)(=O)N1CCCC1C(=O)N(Cc1ccccc1)C(C)C)OCC(=O)N2` (stereo not given), the RP-LC retention time was 837 s.
Regarding `COc1ccc(CC(=O)Nc2nc3c(s2)COCC3)cc1OC`, the RP-LC retention time worked out at 638 s.
Next, `Cc1noc(C)c1CN1CCC(NC(=O)Cc2ccccc2Cl)C1` (stereo not given): 613 s; `CCOc1ccccc1C(=O)NC1CCN(C(=O)c2cn(-c3ccc(C)c(C)c3)nn2)CC1`: 873 s; `Cc1cc(C)cc(NS(=O)(=O)c2cc3n(c2)CCN(CC(C)C)C3=O)c1`: 869 s.
As for `CCc1ccc(C2=Nc3ccccc3N(CC(N)=O)C(=O)C2)cc1`, the RP-LC retention time worked out at 788 s.
As to `COc1ccc(NC(=O)NC2CCN(c3ccccc3)C2=O)cc1OC` (stereo not given), the RP-LC retention time was determined as 683 s.
Next, `Cc1noc2nc(C)n(CC(=O)NCc3ccc(Cl)cc3)c(=O)c12`: 783 s; `CCOC(=O)c1c(C)c(CCC(=O)NC(C)C)n(CC)c1C`: 821 s.
For `COc1cc(=O)n2c(c1C(=O)Nc1ccc(N(C)C)cc1)CCCC2`, the RP-LC retention time is 567 s.
`CS(=O)(=O)N1CCCN(C(=O)c2ccc(F)cc2)CC1`: the RP-LC retention time was 670 s.
The compound `CC1CCCCN1Cc1nc(-c2ccc(N3CCSCC3)nc2)no1` (stereo not given) came in with an RP-LC retention time of 642 s.
For `O=C(NCC(c1cccnc1)N1CCc2ccccc21)C(=O)Nc1ccc2c(c1)OCCO2` (stereo not given), the RP-LC retention time amounted to 730 s.
